Measured values published in PubChem BioAssay (NCI).
Where “and” joins values, the source holds several entries; their conditions need not be identical. Identical values can stand only once.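 Grown in 96-well plates, cells were treated for 48 hours with each compound at five concentrations. Insufficient inhibition: endpoint recorded as highest concentration tested. Abbreviation: GI50, concentration required for 50% inhibition of growth. TGI: concentration producing complete growth inhibition.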

Assays:
Test in all cases: NCI tumour cell line growth inhibition, 48 h
[1] = system: UO-31 renal
[2] = system: SF-295 CNS
[3] = system: ACHN renal
[4] = system: OVCAR-4 ovarian
[5] = system: LOX IMVI melanoma
[6] = system: CAKI-1 renal
[7] = system: MDA-MB-435
[8] = system: KM12 colon
[9] = system: IGROV1 ovarian
[10] = system: SF-268 CNS

Row | SMILES | GI50 [1] | TGI [1] | GI50 [2] | TGI [2] | GI50 [3] | TGI [3] | GI50 [4] | TGI [4] | GI50 [5] | TGI [5] | GI50 [6] | TGI [6] | GI50 [7] | TGI [7] | GI50 [8] | TGI [8] | GI50 [9] | TGI [9] | GI50 [10] | TGI [10]
1 | COc1cc(C(=O)N/N=C/c2cccc([N+](=O)[O-])c2)cc(OC)c1OC | 5.2 µM | > 100 µM | 2.75 µM | 29.2 µM | 26.7 µM | > 100 µM | 43.4 µM | > 100 µM | 4.69 µM | > 100 µM | 2.53 µM | 11.9 µM | 1.09 µM | 3.88 µM | 2.41 µM | > 100 µM | 4.63 µM | > 100 µM | 5.57 µM | > 100 µM
2 | CC1(C)CC2(C)OC2C2(C1)N=NC(=Nc1ccccc1)O2 (centres undefined) | 1.67 µM | 4.02 µM | 13.3 µM | 29.1 µM | 2 µM | 6.12 µM | 3.45 µM | 17.2 µM | 1.06 µM | 2.62 µM | 2.68 µM | 12.5 µM | 3.01 µM | 24.2 µM | 13.6 µM | 28.6 µM | 2.48 µM | 5.99 µM | 4.9 µM | 19.1 µM
3 | CC1SC2(CCCCC2)N(NC(=O)c2[nH]c3ccc(F)cc3c2-c2ccccc2)C1=O (centres undefined) | > 100 µM | > 100 µM | 35.8 µM | > 100 µM | > 100 µM | > 100 µM | 41.6 µM | > 100 µM | > 100 µM | > 100 µM | > 100 µM | > 100 µM | > 100 µM | > 100 µM | 63.7 µM | > 100 µM | 16 µM | 97.3 µM | 78.7 µM | > 100 µM
4 | CCN(CC)CCOc1ccc(C2=C(c3ccccc3)CCc3cc(OC)ccc32)cc1 | 1.86 µM | 4.13 µM | 1.59 µM | 3.27 µM | 4.2 µM | 15.4 µM | 3.54 µM | 17.2 µM | 1.75 µM | 3.64 µM | 2.18 µM | 5.86 µM | 1.48 µM | 3.4 µM | 2.46 µM | 6.85 µM | 1.8 µM | 4.39 µM | 5.97 µM | 18 µM
5 | COc1cc(OC)cc(N2CCN(C(=O)Nc3nc4cc(F)ccc4nc3OC)CC2)c1 | 0.0681 µM and 0.0692 µM and 0.0336 µM | 38.9 µM and 43.3 µM | < 0.0184 µM and 0.0255 µM | 20.6 µM | 0.0129 µM and 0.0608 µM and 0.0408 µM | 25.6 µM and > 100 µM | – | 84.8 µM and > 100 µM | 0.0506 µM and 0.0658 µM and 0.0352 µM | 17.6 µM and 13.6 µM | 0.0401 µM and 0.034 µM | > 100 µM | < 0.01 µM and 0.01 µM | 0.0215 µM and 0.0336 µM | 0.0282 µM and 0.0358 µM and 0.0302 µM | > 100 µM | 0.0441 µM and 0.0988 µM and 0.062 µM | 32.3 µM and 39.5 µM | 0.0912 µM and 0.094 µM and 0.0661 µM | 75.7 µM and 34.1 µM
6 | C[C@H](NC(=O)CCC(F)(F)F)C(=O)N[C@@H]1C(=O)N(CCO)c2ncccc2-c2ccccc21 | > 100 µM | > 100 µM | > 100 µM | > 100 µM | > 100 µM | > 100 µM | > 100 µM | > 100 µM | > 100 µM | > 100 µM | > 100 µM | > 100 µM | > 100 µM | > 100 µM | > 100 µM | > 100 µM | > 100 µM | > 100 µM | > 100 µM | > 100 µM
7 | Nc1ccc2c(c1)CN1C(=O)c3ccccc3C1=N2 | 44 µM | > 125 µM | 32.2 µM | > 116 µM | 34 µM | > 125 µM | – | > 125 µM | – | > 125 µM | – | > 70.3 µM | – | > 125 µM | 37.9 µM | > 125 µM | 51 µM | 123 µM | 58.6 µM | 108 µM
8 | CCCOc1c2cc(COC3OC(CO)C(O)C(O)C3O)cc1Cc1cc(COC3OC(CO)C(O)C(O)C3O)cc(c1OCCC)Cc1cc(COC3OC(CO)C(O)C(O)C3O)cc(c1OCCC)Cc1cc(COC3OC(CO)C(O)C(O)C3O)cc(c1OCCC)C2 (centres undefined) | > 100 µM and 28.8 µM | > 100 µM | 67.5 µM and 84.6 µM and 17.4 µM | > 100 µM and 35.7 µM | > 100 µM and 23.9 µM | > 100 µM and 63.4 µM | – | > 100 µM and 76.6 µM | > 100 µM and 58.6 µM and 17.6 µM | > 100 µM and 31.4 µM | > 100 µM and 25 µM | > 100 µM and 64.8 µM | 57.2 µM and > 100 µM and 20.6 µM | > 100 µM and 41.1 µM | 75.4 µM and > 100 µM and 19.3 µM | > 100 µM and 39.2 µM | 60.2 µM and > 100 µM and 15.9 µM | > 100 µM and 40.8 µM | > 100 µM and 80.4 µM and 17.5 µM | > 100 µM and 33.3 µM
9 | N#CC1(C#N)C2C=CC(C3CCC=C32)C1(C#N)C#N (centres undefined) | – | > 5.88 µM | – | > 10 µM | – | > 10 µM | – | > 10 µM | – | > 10 µM | – | > 10 µM | – | > 10 µM | – | > 10 µM | – | > 10 µM | – | > 10 µM
10 | COc1ccc(N=C2NN=C(c3c[nH]c4ccccc34)CS2)cc1OC | 5.81 µM | > 100 µM | 4.29 µM | > 100 µM | 17.3 µM | > 100 µM | 16 µM | > 100 µM | 6.1 µM | > 100 µM | 8.05 µM | > 79.1 µM | 1.3 µM | 4 µM | 3.05 µM | > 84.2 µM | 10.5 µM | > 100 µM | 8.65 µM | > 100 µM
